Measurements from US20220112479A1, “COMPOUNDS STABILIZING AMYLASES IN LIQUIDS” (BASF SE, priority 2018, published 2022).

Experiments:
Type in all cases: biochemical
Set-up in all cases: key: % of activity in reference formulation at time 0
Amy1=Stainzyme = test: amylase storage stability in liquid formulation (pNP release from Ethyliden-blocked-pNPG7); details: storage at 37° C.
Procedure, shortened: (§1)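 Amylase (dosed as active protein) was stored at 37 °C in liquid base formulations with or without test or comparative compounds. Activity at set time points was measured as pNP release (A405) from blocked-pNPG7 with excess α-glucosidase, expressed relative to the reference formulation at time 0.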

Amy2=Amplify = test: as above; details: storage at 37° C.
Procedure, shortened: as §1

Amylase = test: amylase storage stability in liquid laundry formulation (pNP release from Ethyliden-blocked-pNPG7); details: laundry base formulation VII. (2.0 EDTA), 2.5 wt % component (a), storage at 37° C.
Description: The storage stability of amylase was assessed at 37° C.
Base test formulations were manufactured by making base formulations VI to IX by mixing the components according to Table 4.
Amylase activity at certain points in time as indicated in Table 5 was measured quantitatively by the release of the chromophore para-nitrophenol (pNP) from the substrate (Ethyliden-blocked-pNPG7, Roche Applied Science 10880078103). The alpha-amylase degrades the substrate into smaller molecules and α-glucosidase (Roche Applied Science 11626329103), which is present in excess compared to the amylase, process these smaller products until pNP is released; the release of pNP, measured via an increase of absorption at 405 nm, is directly proportional to the amylase activity of the sample. Amylase standard: Termamyl 120 L (Sigma 3403).
The amylolytic activity values provided were calculated referring to the value determined in the reference formulation at the time 0.
The nomenclature of formulations is as follows: the Roman number before the full stop characterizes the base formulation, the Arabian number the type of compound (A.# compound according to invention (component (a)); B.# comparative compound).

Substance: Diethylcitrate [A.7]
- amylase activity, referring to reference formulation at time 0 (Amy1=Stainzyme; base formulation I., 1.5 wt % component (a), 3 d): 96
- amylase activity, referring to reference formulation at time 0 (Amy1=Stainzyme; base formulation I., 1.5 wt % component (a), 7 d): 86
- amylase activity, referring to reference formulation at time 0 (Amy1=Stainzyme; base formulation I., 1.5 wt % component (a), 14 d): 81
- amylase activity, referring to reference formulation at time 0 (Amy1=Stainzyme; base formulation I., 1.5 wt % component (a), 21 d): 74
- amylase activity, referring to reference formulation at time 0 (Amy1=Stainzyme; base formulation I., 1.5 wt % component (a), 28 d): 63
- amylase activity, referring to reference formulation at time 0 (Amy1=Stainzyme; base formulation I., 1.5 wt % component (a), 42 d): 50
- amylase activity, referring to reference formulation at time 0 (Amy1=Stainzyme; base formulation I., 1.5 wt % component (a), T0): 99
- amylase activity, referring to reference formulation at time 0 (Amy1=Stainzyme; base formulation IV., 2.0 wt % component (a), 3 d): 94
- amylase activity, referring to reference formulation at time 0 (Amy1=Stainzyme; base formulation IV., 2.0 wt % component (a), 7 d): 88
- amylase activity, referring to reference formulation at time 0 (Amy1=Stainzyme; base formulation IV., 2.0 wt % component (a), 14 d): 82
- amylase activity, referring to reference formulation at time 0 (Amy1=Stainzyme; base formulation IV., 2.0 wt % component (a), 21 d): 74
- amylase activity, referring to reference formulation at time 0 (Amy1=Stainzyme; base formulation IV., 2.0 wt % component (a), 28 d): 63
- amylase activity, referring to reference formulation at time 0 (Amy1=Stainzyme; base formulation IV., 2.0 wt % component (a), 42 d): 52
- amylase activity, referring to reference formulation at time 0 (Amy1=Stainzyme; base formulation IV., 2.0 wt % component (a), T0): 99
- amylase activity, referring to reference formulation at time 0 (Amy2=Amplify; base formulation III., 1.5 wt % component (a), 3 d): 96
- amylase activity, referring to reference formulation at time 0 (Amy2=Amplify; base formulation III., 1.5 wt % component (a), 7 d): 91
- amylase activity, referring to reference formulation at time 0 (Amy2=Amplify; base formulation III., 1.5 wt % component (a), 14 d): 85
- amylase activity, referring to reference formulation at time 0 (Amy2=Amplify; base formulation III., 1.5 wt % component (a), 21 d): 78
- amylase activity, referring to reference formulation at time 0 (Amy2=Amplify; base formulation III., 1.5 wt % component (a), 28 d): 70
- amylase activity, referring to reference formulation at time 0 (Amy2=Amplify; base formulation III., 1.5 wt % component (a), 42 d): 60
- amylase activity, referring to reference formulation at time 0 (Amy2=Amplify; base formulation III., 1.5 wt % component (a), T0): 98
- amylase activity, referring to reference formulation at time 0 (Amy2=Amplify; base formulation V., 2.0 wt % component (a), 3 d): 96
- amylase activity, referring to reference formulation at time 0 (Amy2=Amplify; base formulation V., 2.0 wt % component (a), 7 d): 87
- amylase activity, referring to reference formulation at time 0 (Amy2=Amplify; base formulation V., 2.0 wt % component (a), 14 d): 74
- amylase activity, referring to reference formulation at time 0 (Amy2=Amplify; base formulation V., 2.0 wt % component (a), 21 d): 63
- amylase activity, referring to reference formulation at time 0 (Amy2=Amplify; base formulation V., 2.0 wt % component (a), 28 d): 55
- amylase activity, referring to reference formulation at time 0 (Amy2=Amplify; base formulation V., 2.0 wt % component (a), 42 d): 47
- amylase activity, referring to reference formulation at time 0 (Amy2=Amplify; base formulation V., 2.0 wt % component (a), T0): 98
- amylase activity, referring to reference formulation at time 0 (Amylase; 3 d): 90
- amylase activity, referring to reference formulation at time 0 (Amylase; 7 d): 82
- amylase activity, referring to reference formulation at time 0 (Amylase; 14 d): 69
- amylase activity, referring to reference formulation at time 0 (Amylase; 21 d): 62
- amylase activity, referring to reference formulation at time 0 (Amylase; 28 d): 56
- amylase activity, referring to reference formulation at time 0 (Amylase; T0): 99
